Data on 25 molecules can be found in BindingDB's records for doi:10.1016/j.bmcl.2006.04.011 (Ambrilia Biopharma, 2006).

Bounds are passed on as bounds.

Broadly, the IC50 is the concentration that gives 50% inhibition. Read a high IC50 as a need for much substance. By Ki is commonly meant the equilibrium dissociation constant of an inhibitor or competing ligand from its target. Low values mean a stronger hold on the target, high ones a looser hold on the target.

In one test the target is T1, Dimer of Gag-Pol polyprotein [501-599] (Human immunodeficiency virus 1, UniProt P03367).
T1 construct: 501-599
Kind of test: Protease Inhibition Assay.
Conditions: not given
On the procedure:
HIV-1 protease activity was measured by a continuous fluorometric assay. The proteolytic activity can be monitored by the increase in fluorescence intensity, and the protease products were analyzed by HPLC. IC50 values were determined from a dose-response curve, whereas Ki values were obtained by fitting initial rates to a tight-binding inhibition equation.
In turn, `CC(C)CN(C(CO)CCCCNC(=O)[C@@H](N)C(c1ccccc1)c1ccccc1)S(=O)(=O)c1ccc(N)cc1` (stereo partly drawn) [(2S)-2-amino-N-[(5R)-5-[(4-aminobenzene)(2-methylpropyl)sulfonamido]-6-hydroxyhexyl]-3,3-diphenylpropanamide] came in with an IC50 of 500 pM and an inhibitory constant (Ki) of 560 pM.
On to `CC(C)CN(C(CO)CCCCNC(=O)[C@@H](NC(=O)C1CCCCC1)C(c1ccccc1)c1ccccc1)S(=O)(=O)c1ccc(N)cc1` (stereo partly drawn) [(2S)-N-[(5R)-5-[(4-aminobenzene)(2-methylpropyl)sulfonamido]-6-hydroxyhexyl]-2-(cyclohexylformamido)-3,3-diphenylpropanamide], for which the 50% inhibitory concentration (IC50) is < 3800 pM.
With `CC(C)CN(C(CO)CCCCNC(=O)[C@@H](NC(=O)C1CC1)C(c1ccccc1)c1ccccc1)S(=O)(=O)c1ccc(N)cc1` (stereo partly drawn) [(2S)-N-[(5R)-5-[(4-aminobenzene)(2-methylpropyl)sulfonamido]-6-hydroxyhexyl]-2-(cyclopropylformamido)-3,3-diphenylpropanamide], the concentration for half-maximal inhibition (IC50) is 430 pM and the Ki was 450 pM.
In turn, `CC(C)CN(C(CO)CCCCNC(=O)[C@@H](NC(=O)N1CCOCC1)C(c1ccccc1)c1ccccc1)S(=O)(=O)c1ccc(N)cc1` (stereo partly drawn) [(2S)-N-[(5R)-5-[(4-aminobenzene)(2-methylpropyl)sulfonamido]-6-hydroxyhexyl]-2-(morpholin-4-ylcarbonylamino)-3,3-diphenylpropanamide] displayed a concentration for half-maximal inhibition (IC50) of 510 pM and a Ki of 550 pM.
The matching figures for `CC(C)CN(C(CO)CCCCNC(=O)[C@@H](NC(=O)c1ccccc1O)C(c1ccccc1)c1ccccc1)S(=O)(=O)c1ccc(N)cc1` (stereo partly drawn) [(2S)-N-[(5R)-5-[(4-aminobenzene)(2-methylpropyl)sulfonamido]-6-hydroxyhexyl]-2-[(2-hydroxyphenyl)formamido]-3,3-diphenylpropanamide]: 630 pM and 580 pM.
`Cc1ncccc1C(=O)N[C@H](C(=O)NCCCCC(CO)N(CC(C)C)S(=O)(=O)c1ccc(N)cc1)C(c1ccccc1)c1ccccc1` (stereo partly drawn) [(2S)-N-[(5R)-5-[(4-aminobenzene)(2-methylpropyl)sulfonamido]-6-hydroxyhexyl]-2-[(2-methylpyridin-3-yl)formamido]-3,3-diphenylpropanamide] came in with an IC50 of 400 pM and a Ki of 400 pM.
For `CC(C)CN(C(CO)CCCCNC(=O)[C@@H](NC(=O)c1ccc([N+](=O)[O-])c(O)c1)C(c1ccccc1)c1ccccc1)S(=O)(=O)c1ccc(N)cc1` (stereo partly drawn) [(2S)-N-[(5R)-5-[(4-aminobenzene)(2-methylpropyl)sulfonamido]-6-hydroxyhexyl]-2-[(3-hydroxy-4-nitrophenyl)formamido]-3,3-diphenylpropanamide], the half-maximal inhibitory concentration (IC50) was 330 pM and the inhibition constant Ki amounted to 330 pM.
On to `CC(C)CN(C(CO)CCCCNC(=O)[C@@H](NC(=O)c1cccc(O)c1)C(c1ccccc1)c1ccccc1)S(=O)(=O)c1ccc(N)cc1` (stereo partly drawn) [(2S)-N-[(5R)-5-[(4-aminobenzene)(2-methylpropyl)sulfonamido]-6-hydroxyhexyl]-2-[(3-hydroxyphenyl)formamido]-3,3-diphenylpropanamide], for which the IC50 amounted to 400 pM and the Ki turned out to be 400 pM.
On to `CC(C)CN(C(CO)CCCCNC(=O)[C@@H](NC(=O)c1ncccc1O)C(c1ccccc1)c1ccccc1)S(=O)(=O)c1ccc(N)cc1` (stereo partly drawn) [(2S)-N-[(5R)-5-[(4-aminobenzene)(2-methylpropyl)sulfonamido]-6-hydroxyhexyl]-2-[(3-hydroxypyridin-2-yl)formamido]-3,3-diphenylpropanamide], for which 900 pM corresponded to half-maximal inhibition (IC50) and affinity was put at a Ki of 700 pM.
As to `COc1cc(C(=O)N[C@H](C(=O)NCCCCC(CO)N(CC(C)C)S(=O)(=O)c2ccc(N)cc2)C(c2ccccc2)c2ccccc2)ccc1O` (stereo partly drawn) [(2S)-N-[(5R)-5-[(4-aminobenzene)(2-methylpropyl)sulfonamido]-6-hydroxyhexyl]-2-[(4-hydroxy-3-methoxyphenyl)formamido]-3,3-diphenylpropanamide], the IC50 is 500 pM and the inhibition constant Ki was found to be 450 pM.
With `CC(C)CN(C(CO)CCCCNC(=O)[C@@H](NC(=O)c1ccc(O)c([N+](=O)[O-])c1)C(c1ccccc1)c1ccccc1)S(=O)(=O)c1ccc(N)cc1` (stereo partly drawn) [(2S)-N-[(5R)-5-[(4-aminobenzene)(2-methylpropyl)sulfonamido]-6-hydroxyhexyl]-2-[(4-hydroxy-3-nitrophenyl)formamido]-3,3-diphenylpropanamide], the IC50 worked out at 560 pM and the affinity, expressed as Ki, was 480 pM.
Consider `CC(C)CN(C(CO)CCCCNC(=O)[C@@H](NC(=O)c1ccc(O)cc1)C(c1ccccc1)c1ccccc1)S(=O)(=O)c1ccc(N)cc1` (stereo partly drawn) [(2S)-N-[(5R)-5-[(4-aminobenzene)(2-methylpropyl)sulfonamido]-6-hydroxyhexyl]-2-[(4-hydroxyphenyl)formamido]-3,3-diphenylpropanamide], for which the 50% inhibitory concentration (IC50) worked out at 530 pM and the affinity corresponds to a Ki of 470 pM.
`CC(C)CN(C(CO)CCCCNC(=O)[C@@H](NC(=O)c1ccc(N)nc1)C(c1ccccc1)c1ccccc1)S(=O)(=O)c1ccc(N)cc1` (stereo partly drawn) [(2S)-N-[(5R)-5-[(4-aminobenzene)(2-methylpropyl)sulfonamido]-6-hydroxyhexyl]-2-[(6-aminopyridin-3-yl)formamido]-3,3-diphenylpropanamide] registered a 50% inhibitory concentration (IC50) of 400 pM and an inhibition constant (Ki) of 500 pM.
The molecule `CC(C)CN(C(CO)CCCCNC(=O)[C@@H](NC(=O)c1ccc(=O)[nH]c1)C(c1ccccc1)c1ccccc1)S(=O)(=O)c1ccc(N)cc1` (stereo partly drawn) [(2S)-N-[(5R)-5-[(4-aminobenzene)(2-methylpropyl)sulfonamido]-6-hydroxyhexyl]-2-[(6-hydroxypyridin-3-yl)formamido]-3,3-diphenylpropanamide] returned an IC50 of 500 pM and an inhibitory constant (Ki) of 400 pM.
The matching figures for `Cc1ccc(C(=O)N[C@H](C(=O)NCCCCC(CO)N(CC(C)C)S(=O)(=O)c2ccc(N)cc2)C(c2ccccc2)c2ccccc2)cn1` (stereo partly drawn) [(2S)-N-[(5R)-5-[(4-aminobenzene)(2-methylpropyl)sulfonamido]-6-hydroxyhexyl]-2-[(6-methylpyridin-3-yl)formamido]-3,3-diphenylpropanamide]: 400 pM and 500 pM.
The matching figures for `CC(C)CN(C(CO)CCCCNC(=O)[C@@H](NC(=O)N(C)C)C(c1ccccc1)c1ccccc1)S(=O)(=O)c1ccc(N)cc1` (stereo partly drawn) [(2S)-N-[(5R)-5-[(4-aminobenzene)(2-methylpropyl)sulfonamido]-6-hydroxyhexyl]-2-[(dimethylcarbamoyl)amino]-3,3-diphenylpropanamide]: 440 pM and 580 pM.
In turn, `CC(=O)N[C@H](C(=O)NCCCCC(CO)N(CC(C)C)S(=O)(=O)c1ccc(N)cc1)C(c1ccccc1)c1ccccc1` (stereo partly drawn) [(2S)-N-[(5R)-5-[(4-aminobenzene)(2-methylpropyl)sulfonamido]-6-hydroxyhexyl]-2-acetamido-3,3-diphenylpropanamide] yielded an IC50 of 1500 pM.
`CC(C)CN(C(CO)CCCCNC(=O)[C@@H](NC(=O)c1ccc[nH]1)C(c1ccccc1)c1ccccc1)S(=O)(=O)c1ccc(N)cc1` (stereo partly drawn) [(2S)-N-[(5R)-5-[(4-aminobenzene)(2-methylpropyl)sulfonamido]-6-hydroxyhexyl]-3,3-diphenyl-2-(1H-pyrrol-2-ylformamido)propanamide] registered an IC50 of 430 pM and an inhibition constant (Ki) of 470 pM.
`CC(C)CN(C(CO)CCCCNC(=O)[C@@H](NC(=O)c1ccccn1)C(c1ccccc1)c1ccccc1)S(=O)(=O)c1ccc(N)cc1` (stereo partly drawn) [(2S)-N-[(5R)-5-[(4-aminobenzene)(2-methylpropyl)sulfonamido]-6-hydroxyhexyl]-3,3-diphenyl-2-(pyridin-2-ylformamido)propanamide] came in with an IC50 of 460 pM and an inhibition constant (Ki) of 440 pM.
`CC(C)CN(C(CO)CCCCNC(=O)[C@@H](NC(=O)c1cccnc1)C(c1ccccc1)c1ccccc1)S(=O)(=O)c1ccc(N)cc1` (stereo partly drawn) [(2S)-N-[(5R)-5-[(4-aminobenzene)(2-methylpropyl)sulfonamido]-6-hydroxyhexyl]-3,3-diphenyl-2-(pyridin-3-ylformamido)propanamide] showed an IC50 of 680 pM and an inhibition constant Ki of 550 pM.
For `CC(C)CN(C(CO)CCCCNC(=O)[C@@H](NC(=O)c1ccncc1)C(c1ccccc1)c1ccccc1)S(=O)(=O)c1ccc(N)cc1` (stereo partly drawn) [(2S)-N-[(5R)-5-[(4-aminobenzene)(2-methylpropyl)sulfonamido]-6-hydroxyhexyl]-3,3-diphenyl-2-(pyridin-4-ylformamido)propanamide], half-maximal inhibition (IC50) was put at 650 pM and affinity was put at a Ki of 660 pM.
`CC(C)CN(C(CO)CCCCNC(=O)[C@@H](NC(=O)Cc1cccnc1)C(c1ccccc1)c1ccccc1)S(=O)(=O)c1ccc(N)cc1` (stereo partly drawn) [(2S)-N-[(5R)-5-[(4-aminobenzene)(2-methylpropyl)sulfonamido]-6-hydroxyhexyl]-3,3-diphenyl-2-[1-(pyridin-3-yl)acetamido]propanamide]: the half-maximal inhibitory concentration (IC50) was found to be 240 pM and the Ki was 340 pM.

The same test, now with this note: pH 4.7; 30 °C.
Molecule `COC(=O)N1Cc2ccccc2C=C1C(=O)NCCCCC(CO)N(CC(C)C)S(=O)(=O)c1ccc(N)cc1` (stereo not given) [lysine sulfonamide analogue 8] registered an IC50 of 130000 pM.
On to `COC(=O)N[C@@H](Cc1ccccc1-c1ccccc1)C(=O)NCCCCC(CO)N(CC(C)C)S(=O)(=O)c1ccc(N)cc1` (stereo partly drawn) [methyl N-[(1S)-1-{[(5R)-5-[(4-aminobenzene)(2-methylpropyl)sulfonamido]-6-hydroxyhexyl]carbamoyl}-2-(2-phenylphenyl)ethyl]carbamate], for which the IC50 is 521 pM.
On the same count and under the same terms, as for `COC(=O)N[C@@H](Cc1cccc2ccccc12)C(=O)NCCCCC(CO)N(CC(C)C)S(=O)(=O)c1ccc(N)cc1` (stereo partly drawn) [methyl N-[(1S)-1-{[(5R)-5-[(4-aminobenzene)(2-methylpropyl)sulfonamido]-6-hydroxyhexyl]carbamoyl}-2-(naphthalen-1-yl)ethyl]carbamate], the figure is 1200 pM.
